Measured values published in US20210308289A1, “INACTIVATION OF HIGHLY RESISTANT INFECTIOUS MICROBES AND PROTEINS WITH UNBUFFERED HYPOHALOUS ACID COMPOSITIONS” (BRIOTECH, INC., priority 2016, published 2021).

Experiments:
[1] = in solution; cited from earlier work
[2] = tested on: spores of Bacillus subtilis; experiment: Inactivation of Bacillus subtilis spores by HOBr and HOCl; type: cell-based
infectious proteins = type: biochemical
[3] = Application to human skin and mucous membranes; conditions: freshly prepared from HOCl containing 200 ppm of Cl

Structure (SMILES) | pKa [1] | effect on Bacillus spores ([2]; HOCl 25 ppm, 20 seconds of contact) | LRV ([2]; HOCl 230 ppm, 20 seconds) | LRVs ([2]; HOCl below 230 ppm, 20 seconds) | inactivation of infectious proteins (infectious proteins) | adverse effects on epithelial surfaces [3] | LRV ([2]; HOBr approximately 25 ppm, 20 seconds)
OCl [HOCl, hypochlorous acid] | about 7.5 | no detectable effect | 6 | 2-4 | – | – | –
OBr [HOBr, hypobromous acid] | higher than HOCl | – | – | – | comparable levels to those achieved using HOCl | without any indication of adverse effects | 6
